We go through seven compounds from article PMC7948479, “Allostery in the nitric oxide dioxygenase mechanism of flavohemoglobin” (The Journal of Biological Chemistry, 2020).

In assay [1] the target is E. coli flavoHb-NOD (Escherichia coli, UniProt P24232). Type of assay: biochemical. More on the design: made in house; host or cells: E. coli hmp deletion strain AG103 carrying pUC19hmp. An excerpt: We have formulated a steady-state velocity equation for the catalytic cycle with the activating trigger step (KT) (Equation 1).(1) v= Vmax(a) where a=([NO]^2[O2]^2/K1K2K3KTK4)/(1+([O2]/K1)+([O2]^2/K1K2)+(([O2]^2[NO])/K1K2K3)+(([O2]^2[NO])/K1K2K3KT)+(([O2]^2[NO]^2)/K1K2K3KTK4))
(2) v= Vmax(a)(b) where b=[NO]/(K3+([NO](1+((K2/[O2])(1+([NO]/Ki(NO)))))))
In addition, we have introduced a factor and equilibrium constant Ka(O2) for rare situations in which O2 causes an additional NO-independent activation of catalysis possibly by occupying unique binding sites or cavities (Equation 5).
(§1) NOD activity was measured amperometrically in 100 mM phosphate buffer, pH 7.0, containing 0.3 mM EDTA, 100 μg/ml bovine serum albumin (BSA) (Fraction V), 100 μM NADH, 0.1 μM FAD with NO, O2, and N2 mixtures added as described ([4], [72]). NADH oxidase activity was followed spectrophotometrically at 340 nm in a 1.0-ml cuvette containing 90 mM Tris chloride buffer, pH 8.2, 100 μM NADH, 200 μM O2, 0.1 μM FAD, 100 μg/ml BSA, and 0.3 mM EDTA and incubated at 37 °C. Cytochrome b5 reductase activity was assayed at 37 °C by following the rate of absorbance increase at 555 nm in a 1.0-ml reaction buffered with 90 mM Tris chloride, pH 8.2, and containing 10 μM ferric cytochrome b5, 200 μM O2, 20 μM NADH, 0.1 μM FAD, 100 μg/ml BSA, and 0.3 mM EDTA. TMAO reductase activity was assayed by following the absorbance decrease at 340 nm in a 1.0-ml anaerobic reaction containing 12 U Aspergillus niger glucose oxidase, 5 mM glucose, 260 U catalase, 400 mM TMAO, 100 μM NADH, 0.1 μM FAD, 100 μg/ml BSA, and 0.3 mM EDTA in 90 mM Tris chloride pH 8.2 and incubated at 37 °C. Ngb reductase activity was assayed by following the absorbance increase at 424 nm in a 1.0-ml anaerobic reaction containing 12 U glucose oxidase, 5 mM glucose, 260 U catalase, 5 μM Ngb, 50 μM NADH, 0.1 μM FAD, 100 μg/ml BSA, and 0.3 mM EDTA in 90 mM Tris chloride buffer, pH 8.2, and incubated at 37 °C. Methyl viologen reductase activity was assayed by following the formation of the blue cation radical at 603 nm and by applying an extinction coefficient of 13,300 M^−1 cm^−1 in a 1.0-ml anaerobic reaction buffered with 10 mM potassium phosphate, pH 7.0, and containing 12 U glucose oxidase, 5 mM glucose, 260 U catalase, 100 μM NADH, 0.1 μM FAD, 100 μg/ml BSA, 0.3 mM EDTA, and 200 mM sodium chloride and incubated at 37 °C. NO reductase activity was assayed amperometrically at 37 °C in a 1.0-ml anaerobic reaction containing 2 μM NO, 100 μM NADH, 0.1 μM FAD, 12 U glucose oxidase, 5 mM glucose, 260 U catalase, 100 μg/ml BSA, and 0.3 mM EDTA buffered with 10 mM potassium phosphate pH 7.0. CO effects were tested at a final concentration of 50 μM as diluted from a 1 mM stock in water. All activities are reported relative to the heme content of flavoHb.
Rate constants were estimated from the model kinetic equation using Python programming with successive approximations to optimize fits with varying NO and O2 concentrations. Vmax, K1, K2, KT, and Kii(NO) values were treated as independent variables for a given flavoHb while allowing K3, K4, and Ki(NO) to vary over limited ranges with varying O2 concentration. Kii(NO) was estimated from NO inhibition at saturating O2 concentrations.

Another assay has as its target T1, flavoHb-NOD (Escherichia coli, UniProt P24232).
T1 construct: made in house; host or cells: E. coli hmp deletion strain AG103 carrying pUC19hmp
Kind of assay: H2O2 sensitivity of the flavoHb-NOD. The format is biochemical. The conditions noted are these: for protection of flavoHb-NOD against H2O2: resting state, 2 mM ascorbate or 10 µM miconazole. Here is the method: Figure S5. H2O2 sensitivity of the flavoHb-NOD. NOD activity of flavoHb is rapidly lost upon exposure to H2O2 (panel A), and heme absorbance decreases with H2O2 exposure (panel B). The peroxidizable substrate ascorbate and the heme ligand miconazole (6) afford protection thus […]
(A) FlavoHb (0.1 µM heme) […]
was exposed to 0 (○), 50 (◼) or 200 µM H2O2 (●). Catalase (1000 U/mL) was added at various times to terminate reactions, and NOD activity was measured as described under Experimental Procedures. (B) Ferric flavoHb (5 µM heme) was exposed to 200 µM H2O2, and spectra were recorded at 2 min intervals (solid lines) or after a 10 min exposure in the presence of 2 mM ascorbate (dashed line) or 10 µM miconazole (dotted line). Reactions were at 37°C in 50 mM potassium phosphate buffer, pH 7.8, containing 0.1 mM EDTA. Error bars represent the S.D. of […]
(1 picture or pasted object on this page, not shown here)

The target of assay [2] is E. coli flavoHb-NOD (Escherichia coli, UniProt P24232, K84N). As to conditions: 1000 U of catalase. Here is the method: as §1
Assay [3] concerns the target flavoHb heme (Fe^2+ / Fe^3+) (Escherichia coli, UniProt P24232, Y29F). As to conditions: PheB10 variant; 100 μM CO. Here is the method:
(§2) FAD and heme reduction were monitored by following the changes in flavoHb absorbance at 460 and 430 nm, respectively, with stopped-flow rapid mixing of 50 μM NADH and 10 μM flavoHb in N2-purged buffer ([4]). O2, NO, and CO association rate constants were determined by photolyzing 50 μM of the respective ferrous flavoHb species with a 300-ns pulse from a 577-nm laser and by spectrophotometrically following ligand reassociation in O2-, NO-, or CO-saturated buffer unless otherwise indicated ([4], [5]). […] Binding of NO was measured by the change of absorbance at 422 nm by applying a difference extinction coefficient of 0.040 μM^−1 cm^−1. O2 and CO dissociation rate constants were determined by stopped-flow rapid mixing with either CO or NO displacement ([4], [5]). The cuvette path length was 1.0 cm. All reactions were at 20 °C in filtered 100 mM sodium phosphate buffer, pH 7.0, containing 0.3 mM EDTA. Catalase (1000 U/ml) was included in all reactions containing O2 to scavenge H2O2 produced by the NADH oxidase activity of flavoHb and to regenerate O2.

The target in assay [4] is flavoHb heme (Fe^2+ / Fe^3+) (Escherichia coli, UniProt P24232, Q53H). As to conditions: HisE7 variant; 100 μM CO. Here is the method:
as §2

In assay [5] the target is flavoHb heme (Fe^2+ / Fe^3+) (Escherichia coli, UniProt P24232). Here is the method:
as §2

In assay [6] the test system is E. coli flavoHb-NOD. The conditions noted are these: read-out: Ki(CO); cited from earlier work.
Another assay is described as follows: TMAO reductase activity. Type of assay: biochemical. The conditions noted are these: CO 50 μM; AsnF7 variant.

For the compound nitric oxide [NO], the “inhibition of NOD activity by NO” value on E. coli flavoHb-NOD [1] (1:100 ratio of NO to O2, reversible, competitive with O2) is on record as “roughly 50%”.

For `O=C1O[C@H]([C@@H](O)CO)C(O)=C1O` [ascorbate], at flavoHb-NOD, the “protection of flavoHb-NOD against H2O2” value is recorded as “protect”.

`Clc1ccc(COC(Cn2ccnc2)c2ccc(Cl)cc2Cl)c(Cl)c1` (stereo not shown) [miconazole]: at flavoHb-NOD, the “protection of flavoHb-NOD against H2O2” value is “protect”.

With `OO` [H2O2], at flavoHb-NOD (50 or 200 µM H2O2), the “effect of H2O2 on flavoHb-NOD activity” value is reported as “sensitive”.

Regarding Catalase, the “protection of AsnF7 NOD activity from inactivation” value at E. coli flavoHb-NOD [2] is “modest protection”.

As a reminder, the Ki is the equilibrium dissociation constant of an inhibitor or competing ligand from its target. As for `[C-]#[O+]` [CO, reference compound], the “inhibition of O2 migration and binding in the slow phase” value in assay [3] was around 50%. In addition, the “inhibition of O2 migration and binding in the slow phase” value in assay [4] is around 50%. Moreover, in assay [5], the “inhibition of fast phase of O2 rebinding” value is listed as around 10% and the “inhibition of slow phase of O2 rebinding” value amounted to 86%. The Ki with E. coli flavoHb-NOD [6] is around 1 µM. In addition, in “TMAO reductase activity”, the “inhibition of TMAO reduction” value is around 90%.

Take `O=O` [O2]: on E. coli flavoHb-NOD [1], the “inhibition by O2 with respect to NO” value was “no competitive inhibition” and the “selectivity for O2 over N2” value is reported as “greater than 80 fold”.
